These results are taken from patent US20030045680A1, “Peptidic modulators of the androgen receptor” (Praecis Pharmaceuticals Inc., priority 2001, published 2003).

The target of assay [1] is T1, glutathione S-transferase/human androgen receptor DNA binding domain (amino acids 505-635) (GST-DBD) (Homo sapiens, UniProt P10275).
T1 construct: gift of Dr. Steven Balk (neither purchased nor made by the applicant)
T1 sequence (P10275 505-635): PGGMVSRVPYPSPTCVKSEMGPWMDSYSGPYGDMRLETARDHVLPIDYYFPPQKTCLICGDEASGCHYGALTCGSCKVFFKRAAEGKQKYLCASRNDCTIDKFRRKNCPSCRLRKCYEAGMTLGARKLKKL
Kind of assay: ARE binding assay (competition binding, electrochemiluminescence). The method, then:
Anti-glutathione S-transferase monoclonal antibody was purchased from Upstate Biotechnology, Inc., Lake Placid, N.Y. (catalogue #05-311). Prior to ruthenium labeling, 1 mg/ml antibody was dialyzed against phosphate-buffered saline, pH 7.2, for 24 hours at 4° C. A 0.5 mg of antibody was incubated with 18.8 μg Origen TAG-succinimidyl ester (IGEN, International, Inc. Gaithersburg, Md., catalogue # 110034) for 1 hour at room temperature in the dark. The reaction was stopped with 20 μl 2M glycine for 10 minutes in the dark. Free label was removed with a NAP-5 column. Protein concentration was determined using the micro-BCA assay (catalogue #23235ZZ) from Pierce, Rockford, Ill.
Oligonucleotides were purchased from Integrated DNA Technologies, Inc., Coralville, Iowa. One nmole of each complementary oligonucleotide, Biotin-5′-[…]-3′ (SEQ ID NO:54) and 5′-[…]-3′ (SEQ ID NO:55) was added to 10 μl water and heated to 95° C. for 2 minutes. NaCl was added to a final concentration of 50 mM and the oligonucleotides were allowed to anneal at room temperature. After 1 hour, the annealed oligonucleotides were resuspended in 1 ml water.
The glutathione S-transferase/human androgen receptor DNA binding domain (amino acids 505-635) (GST-DBD) was obtained from Dr. Steven Balk. Synthesis of similar androgen receptor fusion proteins has been previously described (Sun, Z., Pan, J. and Balk, S. P. (1997) Nucleic Acids Research 25:3318-3325). The competition binding assay was performed in phosphate-buffered saline, pH 7.2, containing 100 ng/ml poly dI/dC (Sigma-Aldrich Co., St. Louis, Mo., catalogue #P4929) in a final volume of 0.2 ml by incubating 3 ng oligonucleotide, 200 ng GST-DBD, 30 ng antibody and the desired concentration of test compound. After 1.5 hours in the dark at room temperature, 12.5 μg streptavidin-coated M-280 Dynabeads (IGEN International, Inc. Gaithersburg, Md., catalogue # 402-175-02) were added and incubated while shaking for 30 minutes in the dark. Plates were analyzed on an IGEN M8 Electrochemiluminescence Detection Unit (IGEN, International, Inc. Gaithersburg, Md.).

In assay [2] the target is glutathione S-transferase/human androgen receptor DNA binding domain (amino acids 505-635) (human) (UniProt P10275). Kind of assay: ECL competition binding assay (IGEN M8): peptide against GST-DBD binding to biotinylated ARE oligonucleotide.
The target of assay [3] is T2, glutathione S-transferase/human androgen receptor DNA binding domain (amino acids 505-635) (human, UniProt P10275 505-635).
T2 construct: Fusion protein obtained from Dr. Steven Balk; also called GST-DBD; not shown: glutathione S-transferase fusion partner
T2 sequence (looked up): T1 sequence (P10275 505-635)
Described as above.

Assay [4] has as its target T3, glutathione S-transferase/human androgen receptor DNA binding domain (amino acids 505-635) (human), P10275.
T3 chain: T1 sequence (P10275 505-635)
The assay is described as above.

Assay [5] deals with T3, glutathione S-transferase/human ….
The mark [6] stands for this setting: inhibition of binding of androgen receptor DNA binding domain to biotinylated ARE oligonucleotide, average where more than one assay, replications in parentheses, read-out: IC50.

Where two headings read alike, the source gives them in different places. Square brackets hold non-standard residues; d marks the D form. Peptide text beside a SMILES is read from it.

On to `CC[C@@H](C)[C@@H](NC(C)=O)C(=O)N[C@H](CCC(=O)O)C(=O)N[C@H](CO)C(=O)N[C@H](CO)C(=O)N[C@H](CO)C(=O)N[C@H](CC(=O)O)C(N)=O` [compound 38, Ac-iesssd-NH2] (Ac-[dI][dE][dS][dS][dS][dD]-NH2), for which the IC50 in assay [1] (setting [6]) was found to be 20 µM.

Take `CC[C@@H](C)[C@@H](NC(=O)[C@@H](CCC(=O)O)NC(=O)[C@@H](CO)NC(=O)[C@@H](CO)NC(=O)[C@@H](CO)NC(=O)[C@@H](CC(=O)O)NC(C)=O)C(N)=O` [compound 39, Ac-dsssei-NH2] (Ac-[dD][dS][dS][dS][dE][dI]-NH2): the IC50 in assay [1] (setting [6]) was found to be 20 µM.

With “Ac-ATIESSSDEE-NH2 [compound 16, Ac-ATIESSSDEE-NH2]”, the IC50 in assay [1] (setting [6]) is 25 µM.

For “Ac-DSSSEI-NH2 [compound 37, Ac-DSSSEI-NH2]”, the IC50 in assay [1] (setting [6]) worked out at 20 µM.

Consider “Ac-EDPPAKRKAIFMSETQSSPTK-NH2 [compound 4]”, for which, in assay [1] (setting [6]), the IC50 was over 50 µM.

For “Ac-ESSSDE-NH2 [compound 50, Ac-ESSSDE-NH2]”, the IC50 in assay [1] (setting [6]) worked out at 11 µM.

As to “Ac-IASASD-NH2 [compound 33, Ac-IASASD-NH2]”, the IC50 in assay [1] (setting [6]) was determined as 20 µM.

For “Ac-IESASD-NH2 [compound 32, Ac-IESASD-NH2]”, the IC50 in assay [1] (setting [6]) is 20 µM.

On to “Ac-IESLSD-NH2 [compound 35, Ac-IESLSD-NH2]”, for which the IC50 in assay [1] (setting [6]) was found to be 20 µM.

“Ac-IESSSDEE-NH2 [compound 48, Ac-IESSSDEE-NH2]”: in assay [1] (setting [6]), the IC50 was over 50 µM.

Take “Ac-KGVLMYQSSVRVPSVTSVDP-NH2 [compound 6]”: the IC50 in assay [1] (setting [6]) is over 50 µM.

In the case of “Ac-KPASVTVASDASKKIDVIDL-NH2 [compound 2]”, the IC50 in assay [1] (setting [6]) was over 50 µM.

Regarding “Ac-KVESSSVFS-NH2 [compound 9, Ac-KVESSSVFS-NH2]”, in assay [1] (setting [6]), the IC50 is over 50 µM.

In the case of “Ac-LAIESSSDEE-NH2 [compound 17, Ac-LAIESSSDEE-NH2]”, the IC50 in assay [1] (setting [6]) came out at 25 µM.

For “Ac-LTAESSSDEE-NH2 [compound 18, Ac-LTAESSSDEE-NH2]”, the IC50 in assay [1] (setting [6]) came out at 25 µM.

For the molecule “Ac-LTIESS-NH2 [compound 26, Ac-LTIESS-NH2]”, the IC50 in assay [1] (setting [6]) was over 50 µM.

For “Ac-LTIESSSAEE-NH2 [compound 22, Ac-LTIESSSAEE-NH2]”, the IC50 in assay [1] (setting [6]) worked out at 20 µM.

On to “Ac-LTIESSSDEE-OH [compound 30, Ac-LTIESSSDEE-OH]”, for which, in assay [1] (setting [6]), the IC50 was determined as 7.4 µM.

As for “Ac-LTIESSSDEEEDPPAKRKAIF-NH2 [compound 3]”, in assay [1] (setting [6]), the IC50 was determined as 22 µM.

Take “Ac-SSSDEE-NH2 [compound 51, Ac-SSSDEE-NH2]”: the IC50 in assay [1] (setting [6]) is 22 µM.

With “Ac-TIESSSDE-NH2 [compound 28, Ac-TIESSSDE-NH2]”, in assay [1] (setting [6]), the IC50 is 22 µM.

Regarding “Ac-TIESSSDEE-NH2 [compound 27, Ac-TIESSSDEE-NH2]”, the IC50 in assay [1] (setting [6]) came out at 22 µM.

For the molecule “Ac-TPVSSMSSDL-NH2 [compound 14, Ac-TPVSSMSSDL-NH2]”, the IC50 in assay [1] (setting [6]) was 7.4 µM.

“Ac-VRVPSVTSVDPAAIPPSLTDY-NH2 [compound 7]”: the IC50 in assay [1] (setting [6]) is over 50 µM.

For “H-LTIESSSDEE-NH2 [compound 15, H-LTIESSSDEE-NH2]”, in assay [1] (setting [6]), the IC50 stood at 25 µM.

Turning to “H-YGRKKRRQRRRGGGGLTIESSSDEE-NH2 [compound 54]”, the half-inhibitory concentration (IC50) in assay [1] came out at 6.5 µM.

For Ac-DSSSEI-NH2 (also called Cmpd No. 37) [Ac-DSSSEI-NH2], the IC50 in assay [2] and in assay [3] was 20 µM in each case.

B1: Ac-TIESSSD-NH2 (peptide)
peptide: Ac-TIESSSD-NH2
notes: truncation of Cmpd 10; also called Cmpd No. 29
Consider B1, for which the IC50 in assay [3] came to 40 µM.

B2: Ac-TIESSS-NH2 (peptide)
peptide: Ac-TIESSS-NH2
notes: truncation of Cmpd 10; also called Cmpd No. 47
In assay [3], B2 displayed an IC50 of 12 µM.

B3: Ac-FMSETQSSPTKGVLMYQPSSV-NH2 (peptide)
peptide: Ac-FMSETQSSPTKGVLMYQPSSV-NH2
notes: synthetic peptide of the series based on amino acids 423-548 of ARIP3; also called Cmpd No. 5
In the case of B3, the IC50 in assay [3] was 15 µM.

B4: Ac-FMSETQSSPTK-NH2 (peptide)
peptide: Ac-FMSETQSSPTK-NH2
notes: synthetic peptide of the series based on amino acids 423-548 of ARIP3; also called Cmpd No. 11
Consider B4, for which, in assay [3], the IC50 is 5.6 µM.

B5: Ac-LTIESSSDEEEDPPAKRKAIF-NH2 (peptide)
peptide: Ac-LTIESSSDEEEDPPAKRKAIF-NH2
notes: synthetic peptide of the series based on amino acids 423-548 of ARIP3; also called Cmpd No. 3
B5 showed an IC50 in assay [3] of 22 µM.

With Ac-IESLSD-NH2 [Ac-IESLSD-NH2], the IC50 in assay [4] is 20 µM.

B6: Ac-SVPFHHTPVS-NH2 (peptide)
peptide: Ac-SVPFHHTPVS-NH2
notes: synthetic peptide of the series based on amino acids 423-548 of ARIP3; also called Cmpd No. 13
As to B6, in assay [3], the IC50 was found to be 27 µM.

B7: Ac-IESFSD-NH2 (peptide)
peptide: Ac-IESFSD-NH2
notes: variant of Cmpd 49 (IESSSD); also called Cmpd No. 34
As for B7, the IC50 in assay [3] was 63 µM.

B8: Ac-IESSSD-NH2 (peptide)
peptide: Ac-IESSSD-NH2
notes: truncation of Cmpd 10; also called Cmpd No. 49
Molecule B8 gave an IC50 in assay [3] of 4.3 µM.

B9: Ac-IESVSD-NH2 (peptide)
peptide: Ac-IESVSD-NH2
notes: variant of Cmpd 49 (IESSSD); also called Cmpd No. 36
In assay [3], B9 registered an IC50 of 5.3 µM.

B10: Ac-KVESSSVFSKPASVTVASDA-NH2 (peptide)
peptide: Ac-KVESSSVFSKPASVTVASDA-NH2
notes: synthetic peptide of the series based on amino acids 423-548 of ARIP3; also called Cmpd No. 1
As for B10, the IC50 in assay [3] was determined as 34 µM.

B11: Ac-IESSSDE-NH2 (peptide)
peptide: Ac-IESSSDE-NH2
notes: truncation of Cmpd 10; also called Cmpd No. 53
In assay [3], B11 returned an IC50 of 19 µM.

B12: Ac-SVPFHHTPVSSMSSDL-NH2 (peptide)
peptide: Ac-SVPFHHTPVSSMSSDL-NH2
notes: synthetic peptide of the series based on amino acids 423-548 of ARIP3; also called Cmpd No. 12
As to B12, in assay [3], the IC50 came out at 8.2 µM.

B13: Ac-LTIESSSDEE-NH2 (peptide)
peptide: Ac-LTIESSSDEE-NH2
notes: synthetic peptide of the series based on amino acids 423-548 of ARIP3; also called Cmpd No. 10
With B13, in assay [3], the IC50 is 4.7 µM.

Ac-LTIESSSDAE-NH2 (also called Cmpd No. 23) [Ac-LTIESSSDAE-NH2] displayed an IC50 in assay [3] of 14 µM.

In assay [3], Ac-LTIESASDEE-NH2 (also called Cmpd No. 21) [Ac-LTIESASDEE-NH2] registered an IC50 of 1.5 µM.

As for Ac-LTIASSSDEE-NH2 (also called Cmpd No. 19) [Ac-LTIASSSDEE-NH2], the IC50 in assay [3] turned out to be 6.6 µM.

For Ac-LTIESSSDEA-NH2 (also called Cmpd No. 24) [Ac-LTIESSSDEA-NH2], the IC50 in assay [3] amounted to 2.6 µM.

Consider Ac-LTIEASSDEE-NH2 (also called Cmpd No. 20) [Ac-LTIEASSDEE-NH2], for which, in assay [3], the IC50 was determined as 18 µM.

B14: Ac-PAAIPPSLTDYSVPFHHTPVSSMSSDL-NH2 (peptide)
peptide: Ac-PAAIPPSLTDYSVPFHHTPVSSMSSDL-NH2
notes: synthetic peptide of the series based on amino acids 423-548 of ARIP3; also called Cmpd No. 8
For the molecule B14, the IC50 in assay [3] was determined as 28 µM.

B15: Ac-LTIESSSDE-NH2 (peptide)
peptide: Ac-LTIESSSDE-NH2
notes: truncation of Cmpd 10; also called Cmpd No. 25
B15: the IC50 in assay [3] is 30 µM.

In assay [5], H-YGRKKRRQRRRGGGGLTIESSSDEE-NH2 [H-…-NH2] gave an IC50 of 6.5 µM.

In the case of Ac-ESSSDE-NH2 [Ac-ESSSDE-NH2], the IC50 in assay [4] was determined as 11 µM.

In general, IC50 refers to the concentration at which inhibition is half-maximal.
